Where a name gives a salt, the structure may show the parent alone.

In general, melting point refers to the temperature, or range, at which the solid turns liquid. Take `COc1ccc2nc(-c3ccc(CNCCCN4CCN(C)CC4)cc3)cc(-c3ccc(CNCCCN4CCN(C)CC4)cc3)c2c1` (as salt: (cooh)2) [Compound 1l, 6-Methoxy-2,4-bis{4-[(3–(4-methylpiperazin-1-yl)propyl)aminomethyl]phenyl}quinoline]: the melting point lay in the range of 223 to 225 °C.

Turning to `CN(C)CCCNCc1ccc(-c2nc(-c3ccc(CNCCCN(C)C)cc3)c3ccccc3n2)cc1` (as salt: (cooh)2) [Compound 3b, 2,4-Bis{4-[(3-dimethylaminopropyl)aminomethyl]phenyl}quinazoline], the melting point lay in the range of 203 to 205 °C.

On to `COc1ccc2nc(-c3ccc(CNCCCCN(C)C)cc3)cc(-c3ccc(CNCCCCN(C)C)cc3)c2c1` (as salt: (cooh)2) [Compound 1i, 6-Methoxy-2,4-bis{4-[(4-dimethylaminobutyl)aminomethyl]phenyl}quinoline], for which the melting point was in the range of 227 to 229 °C.

In the case of `COc1ccc2c(-c3ccc(CNCCCCN(C)C)cc3)nc(-c3ccc(CNCCCCN(C)C)cc3)nc2c1` (as salt: (cooh)2) [Compound 3m, 7-Methoxy-2,4-bis{4-[(4-dimethylaminobutyl)aminomethyl]phenyl}quinazoline], the melting point fell in the range of 216 to 218 °C.

Compound `CN(C)CCCNCc1cccc(-c2cc(-c3cccc(CNCCCN(C)C)c3)c3ccccc3n2)c1` (as salt: (cooh)2) [Compound 1q, 2,4-Bis{3-[(3-dimethylaminopropyl)aminomethyl]phenyl}quinoline] gave a melting point of 243 to 245 °C.

In turn, `COc1ccc2c(-c3ccc(CNCCCN4CCN(C)CC4)cc3)nc(-c3ccc(CNCCCN4CCN(C)CC4)cc3)nc2c1` (as salt: (cooh)2) [Compound 3q, 7-Methoxy-2,4-bis{4-[(3–(4-methylpiperazin-1-yl)propyl)aminomethyl]phenyl}quinazoline] returned a melting point of 229 to 231 °C.

Take `CN(C)CCNCc1ccc(-c2cc(-c3ccc(CNCCN(C)C)cc3)c3ccccc3n2)cc1` (as salt: (cooh)2) [Compound 1c, 2,4-Bis{4-[(2-dimethylaminoethyl)aminomethyl]phenyl}quinoline]: the melting point fell in the range of 229 to 231 °C.

In the case of `COc1ccc2c(-c3ccc(CNCCCCN4CCN(C)CC4)cc3)nc(-c3ccc(CNCCCCN4CCN(C)CC4)cc3)cc2c1` (as salt: (cooh)2) [Compound 2k, 6-Methoxy-1,3-bis{4-[(4–(4-methylpiperazin-1-yl)butyl)aminomethyl]phenyl}isoquinoline], the melting point was in the range of 216 to 218 °C.

The compound `CN1CCN(CCCNCc2ccc(-c3nc(-c4ccc(CNCCCN5CCN(C)CC5)cc4)c4ccccc4n3)cc2)CC1` (as salt: (cooh)2) [Compound 3e, 2,4-Bis{4-[(3–(4-methylpiperazin-1-yl)propyl)aminomethyl]phenyl}quinazoline] yielded a melting point of 229 to 231 °C.

Compound `COc1ccc2nc(-c3ccc(CNCCCN(C)C)cc3)nc(-c3ccc(CNCCCN(C)C)cc3)c2c1` (as salt: (cooh)2) [Compound 3i, 6-Methoxy-2,4-bis{4-[(3-dimethylaminopropyl)aminomethyl]phenyl}quinazoline] had a melting point of 243 to 245 °C.

`CN1CCN(CCCNCc2ccc(-c3cc(-c4ccc(CNCCCN5CCN(C)CC5)cc4)c4ccccc4n3)cc2)CC1` (as salt: (cooh)2) [Compound 1e, 2,4-Bis{4-[(3–(4-methylpiperazin-1-yl)propyl)aminomethyl]phenyl}quinoline] showed a melting point of 249 to 251 °C.

On to `CN1CCN(CCCNCc2ccc(-c3cc4ccccc4c(-c4ccc(CNCCCN5CCN(C)CC5)cc4)n3)cc2)CC1` (as salt: (cooh)2) [Compound 2d, 1,3-Bis{4-[(3–(4-methylpiperazin-1-yl)propyl)aminomethyl]phenyl}isoquinoline], for which the melting point is 217 to 219 °C.

Take `CN1CCN(CCCCNCc2ccc(-c3cc(-c4ccc(CNCCCCN5CCN(C)CC5)cc4)c4ccccc4n3)cc2)CC1` (as salt: (cooh)2) [Compound 1d, 2,4-Bis{4-[(4–(4-methylpiperazin-1-yl)butyl)aminomethyl]phenyl}quinoline]: the melting point was in the range of 225 to 227 °C.

For `COc1ccc2nc(-c3ccc(CNCCCCN(C)C)cc3)nc(-c3ccc(CNCCCCN(C)C)cc3)c2c1` (as salt: (cooh)2) [Compound 3h, 6-Methoxy-2,4-bis{4-[(4-dimethylaminobutyl)aminomethyl]phenyl}quinazoline], the melting point was 156 to 158 °C.

In turn, `CN(C)CCCCNCc1ccc(-c2cc(-c3ccc(CNCCCCN(C)C)cc3)c3ccccc3n2)cc1` (as salt: (cooh)2) [Compound 1a, 2,4-Bis{4-[(4-dimethylaminobutyl)aminomethyl]phenyl}quinoline] showed a melting point of 258 to 260 °C.

Compound `COc1ccc2c(-c3ccc(CNCCCN(C)C)cc3)nc(-c3ccc(CNCCCN(C)C)cc3)nc2c1` (as salt: (cooh)2) [Compound 3n, 7-Methoxy-2,4-bis{4-[(3-dimethylaminopropyl)aminomethyl]phenyl}quinazoline] returned a melting point of 223 to 225 °C.

Consider `COc1ccc2cc(-c3ccc(CNCCCN4CCN(C)CC4)cc3)nc(-c3ccc(CNCCCN4CCN(C)CC4)cc3)c2c1` (as salt: (cooh)2) [Compound 2h, 7-Methoxy-1,3-bis{4-[(3–(4-methylpiperazin-1-yl)propyl)aminomethyl]phenyl}isoquinoline], for which the melting point was in the range of 195 to 197 °C.

The compound `COc1ccc2nc(-c3ccc(CNCCCCN4CCN(C)CC4)cc3)cc(-c3ccc(CNCCCCN4CCN(C)CC4)cc3)c2c1` (as salt: (cooh)2) [Compound 1k, 6-Methoxy-2,4-bis{4-[(4–(4-methylpiperazin-1-yl)butyl)aminomethyl]phenyl}quinoline] displayed a melting point of 235 to 237 °C.

As for `COc1ccc2c(-c3ccc(CNCCCN4CCN(C)CC4)cc3)nc(-c3ccc(CNCCCN4CCN(C)CC4)cc3)cc2c1` (as salt: (cooh)2) [Compound 2l], the melting point fell in the range of 226 to 228 °C.

For the compound `CN(C)CCCCNCc1ccc(-c2cc3ccccc3c(-c3ccc(CNCCCCN(C)C)cc3)n2)cc1` (as salt: (cooh)2) [Compound 2a, 1,3-Bis{4-[(4-dimethylaminobutyl)aminomethyl]phenyl}isoquinoline], the melting point was in the range of 184 to 186 °C.

Regarding `COc1ccc2c(-c3ccc(CNCCCN(C)C)cc3)cc(-c3ccc(CNCCCN(C)C)cc3)nc2c1` (as salt: (cooh)2) [Compound 1n, 7-Methoxy-2,4-bis{4-[(3-dimethylaminopropyl)aminomethyl]phenyl}quinoline], the melting point lay in the range of 237 to 239 °C.

The compound `CN(C)CCNCc1ccc(-c2nc(-c3ccc(CNCCN(C)C)cc3)c3ccccc3n2)cc1` (as salt: (cooh)2) [Compound 3c, 2,4-Bis{4-[(2-dimethylaminoethyl)aminomethyl]phenyl}quinazoline] yielded a melting point of 203 to 205 °C.

The compound `CN1CCN(CCCNCc2cccc(-c3cc(-c4cccc(CNCCCN5CCN(C)CC5)c4)c4ccccc4n3)c2)CC1` (as salt: (cooh)2) [Compound 1r, 2,4-Bis{3-[(3–(4-methylpiperazin-1-yl)propyl)aminomethyl]phenyl}quinoline] displayed a melting point of 237 to 239 °C.

As to `CN1CCN(CCCNCc2cccc(-c3nc(-c4cccc(CNCCCN5CCN(C)CC5)c4)c4ccccc4n3)c2)CC1` (as salt: (cooh)2) [Compound 3t, 2,4-Bis{3-[(3–(4-methylpiperazin-1-yl)propyl)aminomethyl]phenyl}quinazoline], the melting point was 252 to 254 °C.

In turn, `COc1ccc2c(-c3ccc(CNCCCCN(C)C)cc3)nc(-c3ccc(CNCCCCN(C)C)cc3)cc2c1` (as salt: (cooh)2) [Compound 2i, 6-Methoxy-1,3-bis{4-[(4-dimethylaminobutyl)aminomethyl]phenyl}isoquinoline] yielded a melting point of 135 to 137 °C.

In turn, `COc1ccc2cc(-c3ccc(CNCCCN(C)C)cc3)nc(-c3ccc(CNCCCN(C)C)cc3)c2c1` (as salt: (cooh)2) [Compound 2f, 7-Methoxy-1,3-bis{4-[(3-dimethylaminopropyl)aminomethyl]phenyl}isoquinoline] displayed a melting point of 178 to 180 °C.

As for `COc1ccc2nc(-c3ccc(CNCCN4CCN(C)CC4)cc3)nc(-c3ccc(CNCCN4CCN(C)CC4)cc3)c2c1` (as salt: (cooh)2) [Compound 3l, 6-Methoxy-2,4-bis{4-[(2–(4-methylpiperazin-1-yl)ethyl)aminomethyl]phenyl}quinazoline], the melting point lay in the range of 229 to 231 °C.

In turn, `COc1ccc2cc(-c3ccc(CNCCCCN4CCN(C)CC4)cc3)nc(-c3ccc(CNCCCCN4CCN(C)CC4)cc3)c2c1` (as salt: (cooh)2) [Compound 2g, 7-Methoxy-1,3-bis{4-[(4–(4-methylpiperazin-1-yl)butyl)aminomethyl]phenyl}isoquinoline] had a melting point of 172 to 174 °C.

For the compound `CN1CCN(CCCCNCc2ccc(-c3cc4ccccc4c(-c4ccc(CNCCCCN5CCN(C)CC5)cc4)n3)cc2)CC1` (as salt: (cooh)2) [Compound 2c, 1,3-Bis{4-[(4–(4-methylpiperazin-1-yl)butyl)aminomethyl]phenyl}isoquinoline], the melting point lay in the range of 181 to 183 °C.

Compound `c1cc(CNCCCN2CCOCC2)cc(-c2cc(-c3cccc(CNCCCN4CCOCC4)c3)c3ccccc3n2)c1` (as salt: (cooh)2) [Compound 1s, 2,4-Bis{3-[(3-morpholinopropyl)aminomethyl]phenyl}quinoline] displayed a melting point of 221 to 223 °C.

As to `CN(C)CCCCNCc1ccc(-c2nc(-c3ccc(CNCCCCN(C)C)cc3)c3ccccc3n2)cc1` (as salt: (cooh)2) [Compound 3a, 2,4-Bis{4-[(4-dimethylaminobutyl)aminomethyl]phenyl}quinazoline], the melting point was in the range of 153 to 155 °C.

Regarding `COc1ccc2c(-c3ccc(CNCCCN(C)C)cc3)nc(-c3ccc(CNCCCN(C)C)cc3)cc2c1` (as salt: (cooh)2) [Compound 2j, 6-Methoxy-1,3-bis{4-[(3-dimethylaminopropyl)aminomethyl]phenyl}isoquinoline], the melting point lay within 171 to 173 °C.

`c1ccc2c(-c3ccc(CNCCCN4CCOCC4)cc3)nc(-c3ccc(CNCCCN4CCOCC4)cc3)nc2c1` (as salt: (cooh)2) [Compound 3f, 2,4-Bis{4-[(3-morpholinopropyl)aminomethyl]phenyl}quinazoline] displayed a melting point of 183 to 185 °C.

Values taken from paper PMC6968685 (Journal of Enzyme Inhibition and Medicinal Chemistry, 2020).
